Source: patent US6506555B1, “Use of HIV protease inhibiting compounds” (Institut National de la Sante et de la Recherche Medicale …, priority 1998, dated 2003)
Like-named read-outs stand apart in the source and are kept apart here.

Legend:
CD8+ T lymphocytes = assay: Proliferation of the CD8+ T lymphocytes in vivo (FACS of splenocytes); design: species or system mice; settings: 200 pfu LCMV-WE i.v., anti-CD8 FACS
[1] = test system: antibodies specific for the LCMV nucleoprotein and glycoprotein; assay: Antibody response to LCMV nucleoprotein and glycoprotein (ELISA); assay type: in vivo, mice; settings: ELISA after four and eight weeks
Description: The antibodies specific for the LCMV nucleoprotein and for the LCMV glycoprotein were evaluated after four and eight weeks by an ELISA test as described in O. Planz, P. Seiler, H. Hengartner and R. M. Zinkernagel, Nature, 382, 629 […].

[2] = test system: ubiquitin proteasome pathway; assay: Degradation of the proteins with a short lifespan (35S pulse-chase); assay type: cell-based; settings: cells cultured overnight with variable concentration
Description: For these analyses, the cells were cultured overnight in the presence of a variable concentration of ritonavir, preincubated in a medium free of methionine and cysteine for 1 hour, subjected to labelling with ^35S-methionine and ^35S-cysteine for one hour, washed in PBS and subjected to a chase for one hour. After one hour, TCA (trichloroacetic acid at 10% final) was added to the supernatant and the radioactivity of the supernatant not precipitated with TCA was quantified with a Lumaplate (Topcount Packard) (FIG. 4A).

[3] = molecular target: T1, 20S proteasomes isolated from murine B8 fibroblasts (Mus musculus, UniProt O55234+P70195+Q60692); assay: Hydrolysis of fluorogenic substrates by isolated 20S proteasomes; assay type: biochemical
T1 construct: 20S proteasomes isolated from murine B8 fibroblasts; endogenous in cells; host or cells: murine B8 fibroblasts; 20S proteasome purified from the cells
Description: FIGS. 4B, 4C and 4D show the hydrolysis of the fluorogenic substrate (100 μM Suc-LLVY-MCA, 100 μM (Z)-GGL-MCA and 400 μM Bz-VGR-MCA) of the 20S proteasomes isolated from murine B8 fibroblasts, as a function of variable concentrations of ritonavir and of LLnL (N-acetyl-L-leucinyl-L-leucinal-L-norleucinal, known inhibitor of the proteasome). The results are reported for one hour of digestion with the 20S proteasome (500 ng) in a final volume of 100 μl. The values were located in a linear detection domain and are the mean values of triplicates with standard errors of less than 3%.
The hydrolysis of Suc-LLVY-MCA by the 20S murine proteasomes was tested according to the method described in Example 4.2. under identical conditions except for the fact that a different batch of purified proteasomes was used. The hydrolysis of Suc-LLVY-MCA was measured in the presence of increasing concentrations of ritonavir, nelfinavir (Roche), saquinavir (mesylate) and indinavir (active ingredient of Crixivan® marketed by Merck and Sharp and Dohme). The HIV protease inhibitors were dissolved beforehand in ethanol, methanol, DMSO and water respectively, for use in vitro (FIG. 4E).

Hybridoma FT7.9 (MHC-I) = assay: IL-2 release by hybridoma FT7.9 cocultured with NOD pancreatic islets; assay type: cell-based, NOD mice
Description: Ritonavir (0.6 mg per 10 g of body weight per day) or a placebo (phosphate buffer PBS) was administered by the intraperitoneal route to NOD mice. The pancreatic islets were removed and cultured for 24 hours in the presence or in the absence of 2.5 μg/ml of ritonavir. The cells were then cocultured with MHC-1-restricted hybridomas (FT6.9 and FT7.9 for 24 hours). The quantity of IL-2 was assayed in the supernatant. The following tables present the quantities of IL-2 measured by a test of proliferation (cpm×10^−3).

[4] = Experimental allergic encephalitis in rats; assay type: in vivo, Lewis rats; design: key to clinical score of EAE: 1: weakness of the movements of the tail; 2: incomplete paralysis of the hindquarters; 3: complete paralysis of the hindquarters; 4: incomplete paralysis of the forequarters; 5: total immobility
Description: Experimental allergic encephalitis in rats is the only model of multiple sclerosis in humans. The guinea pig MBP (Myelin Basic Protein) is administered to 7-week old female Lewis rats by a subcutaneous injection, into the footpad, of 50 μg of MBP in 100 μl of complete Freund's adjuvant supplemented with 4 μg/ml of mycobacteria. There are administered, in addition, to these rats, daily, either 1 mg, 5 mg or 10 mg of ritonavir, per animal, or a placebo (phosphate buffer) of MBP injection until the animals not treated with ritonavir are killed. The clinical scores measuring the progression of the experimental allergic […] following: 1: weakness of the movements of the tail; 2: incomplete paralysis of the hindquarters; 3: complete paralysis of the hindquarters; 4: incomplete paralysis of the forequarters; and 5: total immobility. About eight days after this immunization with MBP, the control rats started to show the first stages of paralysis (temporary) due to the immune response caused by the administration of myelin.

hepatitis C virus = assay: Clinical case: patient doubly infected with HIV and HCV treated with ritonavir; assay type: in vivo, human
Excerpt: A patient who is a drug addict is monitored for a double infection with HIV and HCV, discovered in 1986 but undoubtedly prior to this date. The progression of the HIV infection is slow, with a viremia established at around 4 Log HIV RNA copies/ml. The level of CD4 T lymphocytes dropped with a first opportunistic lung infection. […] An HIV protease inhibitor, ritonavir, was introduced into the therapy of the patient and followed since then. The HIV viremia became undetectable during the two months which followed the beginning of the treatment before returning to the previous level from the fourth month. The level of CD4 T lymphocytes increased during this period and continued to increase even after the reappearance of the HIV viremia. By contrast, the HCV viremia became negative at the 7th month after the introduction of ritonavir (FIG. 7), and has remained so two years later.

MC57 fibroblasts (H-2b) = settings: MC57 cells infected with LCMV, ritonavir 5 μg/ml for 36 hours
[5] = 100 μM substrate, one hour digestion, 500 ng 20S proteasome
[6] = in vivo PBS, in vitro ritonavir 2.5 μg/ml
[7] = in vivo ritonavir, in vitro PBS
[8] = in vivo ritonavir, in vitro ritonavir
[9] = patients with hepatic cytolysis (cytolysis +)
[10] = patients without hepatic cytolysis (cytolysis −)

In the case of CC(C)c1nc(CN(C)C(=O)N[C@H](C(=O)N[C@@H](Cc2ccccc2)C[C@H](O)[C@H](Cc2ccccc2)NC(=O)OCc2cncs2)C(C)C)cs1 [ritonavir], the “proliferation of the CD8+ T lymphocytes in response to the LCMV virus” value (CD8+ T lymphocytes) was “Inhibition”, the “capacity for synthesizing anti-virus antibodies” value [1] was “does not reduce” and the “degradation of proteins with a short lifespan” value [2] was “inhibits in a dose-dependent manner”. The “hydrolysis of the fluorogenic substrate Suc-LLVY-MCA” value [3, 5] was “potent inhibitor”, the “hydrolysis of the substrate (Z)-GGL-MCA” value [3, 5] was “hardly affected” and the “cleavage of the substrate Bz-VGR-MCA ("trypsin" type activity)” value ([3]; 400 μM substrate, one hour digestion, 500 ng 20S proteasome) was “substantially increased”. For the same compound, the “"chimotrypsin-like" activity (hydrolysis of Suc-LLVY-MCA), comparison of four HIV-1 protease inhibitors” value ([3]; different batch of purified proteasomes, increasing concentrations) was “inhibits”, the “"chymotrypsin-like" activity of the proteasome” value ([3]; summary statement) was “inhibited” and the “"trypsin" activity of the proteasome” value ([3]; summary statement) was “increased”. For the same compound, the “percentage in brackets (reduction of IL-2 versus PBS/PBS)” value (Hybridoma FT7.9 (MHC-I); [6]) was 53%, the “quantity of IL-2 measured by a test of proliferation” value (from here on “quantity of IL-2 measured”) (Hybridoma FT7.9 (MHC-I); [6]) was 43 cpm×10^−3 and the “percentage in brackets (reduction of IL-2 versus PBS/PBS)” value (Hybridoma FT7.9 (MHC-I); [7]) was 24%. For the same compound, the “quantity of IL-2 measured” value (Hybridoma FT7.9 (MHC-I); [7]) was 70 cpm×10^−3, the “percentage in brackets (reduction of IL-2 versus PBS/PBS)” value (Hybridoma FT7.9 (MHC-I); [8]) was 20% and the “quantity of IL-2 measured” value (Hybridoma FT7.9 (MHC-I); [8]) was 74 cpm×10^−3. For the same compound, the “clinical score of EAE” value ([4]; other rats treated with 10 mg per animal daily) was 1, the “development of the disease (EAE)” value ([4]; rats treated with 10 mg per animal daily) was “two did not develop the disease” and the “appearance of the first signs of paralysis” value ([4]; rats treated with 1 and 5 mg per animal daily) was “delayed”. The HCV viremia (hepatitis C virus; at the 7th month after introduction of ritonavir, remained so two years later) was “negative”, the HIV viremia (hepatitis C virus; during the two months after beginning of treatment, returned to previous level from the fourth month) was “undetectable” and the “level of CD4 T lymphocytes” value (hepatitis C virus; one patient, during treatment) was “increased”. For the same compound, the “lysis by the anti-LCMV cytotoxic T lymphocytes” value (MC57 fibroblasts (H-2b)) was “strongly inhibits”, the anti-HCV antibody titre (HCV; during the therapy) was “increases only in the patients exhibiting cytolysis” and the “patients in whom the ALAT concentrations increased” value (HCV; patients coinfected with HCV and HIV) was 57%. For the same compound, the “Ac index (variation of anti-HCV antibody titre, ratio of the optical densities)” value (HCV; [9]) was 2.19(+/−1.68), the “variation of CD4” value (HCV; [9]) was 109.4(+/−113) cells /mm^3 and the “variation of CD8” value (HCV; [9]) was 203.6(+/−650) cells /mm^3. For the same compound, the “variation of HCV-VL (viral HCV load)” value (HCV; [9]) was “+0.61 log10 of copies of RNA/ml”, the “variation of HCV-VL (viral HCV load)” value (HCV; patients with hepatic cytolysis (cytolysis +), listed as RTN) was 0.61(+/−0.3) log10 of copies of RNA/ml and the “Ac index (variation of anti-HCV antibody titre, ratio of the optical densities)” value (HCV; [10]) was 0.98(+/−0.24). The “variation of CD4” value (HCV; [10]) was 88.3(+/−170) cells /mm^3, the “variation of CD8” value (HCV; [10]) was 281.8(+/−394) cells /mm^3 and the “variation of HCV-VL (viral HCV load)” value (HCV; [10]) was “+0.22 log10 of copies of RNA/ml”. The “variation of HCV-VL (viral HCV load)” value (HCV; patients without hepatic cytolysis (cytolysis −), listed as RTN) was 0.22(+/−0.35) log10 of copies of RNA/ml, the “ALAT concentration peak, mean maximum value” (HCV; ritonavir group, third month) was 418 IU/1 and the “ALAT concentration peak, variation” value (HCV; ritonavir group, third month) was 96-1570 IU/1.
